This passage reports EC50 and Activity results from ChEMBL document CHEMBL1143332, “Syntheses of tricyclic pyrones and pyridinones and protection of Abeta-peptide induced MC65 neuronal cell death” (Bioorg Med Chem Lett, 2009).

Structures are written as SMILES. Active and inactive are the calls of the source. No cut-off for these calls is given here.

A short description of assay [1]: (§1) Cell protective activity in human MC65 cells assessed as protection against amyloid beta precursor protein C99-induced neuronal cell death after 3 days by MTT assay. Type of assay: functional, cell-based. Particulars: 72 h.
The subject of a further assay is neuronal. The assay is described as §1. In kind it is functional, cell-based.

Consider `Cc1cc2c(c(=O)o1)C=C1CC[C@H]([C@@H](C)Cn3cnc4c(N)ncnc43)C[C@@H]1O2`, for which the EC50 in assay [1] came to 3000 nM.

Consider `Cc1cc2c(c(=O)o1)C=C1CC[C@H]([C@@H](C)Cn3cnc4c(Cl)ncnc43)C[C@@H]1O2`, for which, in assay [1], the concentration giving a half-maximal response (EC50) was 930 nM.

On to `C=C(Cn1cnc(N)c2ncnc1-2)[C@H]1CCC2=Cc3c(cc(C)oc3=O)O[C@H]2C1`, for which the EC50 in assay [1] amounted to 1950 nM.

`C=C(C)[C@@H]1CCc2cnc3cc(C)oc(=O)c3c2C1`: the concentration for a half-maximal effect (EC50) in assay [1] turned out to be 2490 nM.

`Cc1cc2c(c(=O)o1)C=C1CC[C@H]([C@@H](C)Cn3ccc(N)nc3=O)C[C@@H]1O2`: the result in the assay on neuronal was inactive.

In the case of `Cc1cc2c(c(=O)o1)C=C1CC[C@H]([C@@H](C)COc3nccc(N)n3)C[C@@H]1O2`, the EC50 in assay [1] turned out to be 2940 nM.

In the case of `C=C(C)[C@H]1CCc2cc3c(=O)oc(C)cc3nc2C1`, in the assay on neuronal, the outcome was inactive.

Regarding `Cc1cc2c(c(=O)o1)C=C1CC[C@H]([C@@H](C)CSc3ncccn3)C[C@@H]1O2`, the EC50 in assay [1] was found to be 1380 nM.

On to `Cc1cc2c(c(=O)o1)C=C1CC[C@H]([C@@H](C)Cn3cnc4cnc(N)nc43)C[C@@H]1O2`, for which the concentration for a half-maximal effect (EC50) in assay [1] came to 860 nM.

For `CC(=O)Nc1nc2c(ncn2C[C@H](C)[C@H]2CCC3=Cc4c(cc(C)oc4=O)O[C@H]3C2)c(=O)[nH]1`, the outcome in the assay on neuronal was inactive.

In the case of `Cc1cc2c(c(=O)o1)C=C1CC[C@H]([C@@H](C)Cn3cc(C#N)c(N)n3)C[C@@H]1O2`, the concentration giving a half-maximal response (EC50) in assay [1] was found to be 8300 nM.

With `COc1ccc(Cn2c(C)cc3c(c2=O)C=C2CC[C@H]([C@@H](C)Cn4cnc(N)c5ncnc4-5)C[C@@H]2O3)cc1`, the EC50 in assay [1] is 350 nM.

In the case of `C=C(C)[C@H]1CCC2=Cc3c(cc(C)n(Cc4ccc(OC)cc4)c3=O)O[C@H]2C1`, the EC50 in assay [1] turned out to be 1250 nM.

For the compound `Cc1cc2c(c(=O)o1)C=C1CC[C@H]([C@@H](C)Cn3cc(C)c(=O)[nH]c3=O)C[C@@H]1O2`, the EC50 in assay [1] stood at 6920 nM.

As to `Cc1cc2c(c(=O)o1)C=C1CC[C@H]([C@@H](C)Cn3cnc(N)c4ncnc3-4)C[C@@H]1O2`, in assay [1], the 50% effective concentration (EC50) was 310 nM.

A word on the EC50: it is the concentration that produces a half-maximal response.
